Source: patent US9469645B2, “Compounds and compositions for the treatment of parasitic diseases” (Novartis AG, priority 2009, dated 2016)
Read-outs that look alike come from different tables or passages of the source.

Experiments:
W2 strain = assay: parasite proliferation assay in infected red blood cells (SYBR Green I), W2 strain; format: cell-based
Excerpt: (§1) Compounds of the invention can be assayed to measure their capacity to inhibit proliferation of parasitemia in infected red blood cells. The proliferation is quantified by the addition of SYBR Green I (INVITROGEN)® dye which has a high affinity for double stranded DNA.

3D7 P. falciparum strain = assay: parasite proliferation assay in infected red blood cells (SYBR Green I); format: cell-based, Plasmodium falciparum; settings: 3D7 strain, read-out: EC50 3D7 strain
Excerpt: as §1
The following assay illustrates the invention without in any way limiting the scope of the invention. This parasite proliferation assay measures the increase in parasite DNA content using a DNA intercalating dye, SYBR Green®.
3D7 P. falciparum strain is grown in complete culturing media until parasitemia reaches 3% to 8% with O+ human erythrocytes. 20 μl of screening media is dispensed into 384 well assay plates. […] 10 μl of lysis buffer (saponin, triton-X, EDTA) containing a 10× solution of SYBR Green I® in RPMI media is dispensed into the plates. The plates are lidded and kept at room temperature overnight for the lysis of the infected red blood cells.

[1] = Plasmodium falciparum, 3D7, Erythrocyte

For `Cc1ccc(Nc2c(-c3ccc(F)cc3)nc3n2CCN(C(=O)CN2CCCC(F)(F)C2)C3)cc1` [Compound 74], the EC50 (W2 strain; Erythrocyte) was 67 nM and the EC50 (3D7 P. falciparum strain; [1]) was 70 nM.

`CNCC(=O)N1CCn2c(nc(-c3ccc(F)cc3)c2Nc2ccc(C)cc2)C1` [Compound 75] gave an EC50 (W2 strain; Erythrocyte) of 190 nM and an EC50 (3D7 P. falciparum strain; [1]) of 250 nM.

Work on `O=C(CN1CCCC(F)(F)C1)N1CCn2c(nc(-c3ccc(F)cc3)c2Nc2ccc(Cl)cc2)C1` [Compound 76] yielded an EC50 (W2 strain; Erythrocyte) of 61 nM and an EC50 (3D7 P. falciparum strain; [1]) of 60 nM.

Molecule `CNCC(=O)N1CCn2c(nc(-c3ccc(F)cc3)c2Nc2ccc(Cl)cc2)C1` [Compound 77] has an EC50 (W2 strain; Erythrocyte) of 39 nM and an EC50 (3D7 P. falciparum strain; [1]) of 60 nM.

`CC(C)(N)C(=O)N1CCn2c(nc(-c3ccc(F)cc3)c2Nc2ccc(F)cc2F)C1` [Compound 79] showed an EC50 (W2 strain; Erythrocyte) of 90 nM and an EC50 (3D7 P. falciparum strain; [1]) of 110 nM.

Molecule `NCC(=O)N1CCn2c(nc(-c3ccc(F)cc3)c2Nc2ccc(F)cc2F)C1` [Compound 80] has an EC50 (W2 strain; Erythrocyte) of 63 nM and an EC50 (3D7 P. falciparum strain; [1]) of 60 nM.

Molecule `Cc1ccc(Nc2c(-c3ccc(F)cc3)nc3n2CCN(C(=O)[C@H](C)O)C3)cc1` [Compound 81] has an EC50 (W2 strain; Erythrocyte) of 449 nM and an EC50 (3D7 P. falciparum strain; [1]) of 300 nM.

`Cc1ccc(Nc2c(-c3ccc(F)cc3)nc3n2CCN(C(=O)[C@H](C)N)C3)cc1` [Compound 83] gave an EC50 (W2 strain; Erythrocyte) of 131 nM and an EC50 (3D7 P. falciparum strain; [1]) of 80 nM.

In the case of `Cc1ccc(Nc2c(-c3ccc(F)cc3)nc3n2CCN(C(=O)[C@@H](C)N)C3)cc1` [Compound 84], the EC50 (W2 strain; Erythrocyte) is reported as 74 nM and the EC50 (3D7 P. falciparum strain; [1]) is reported as 50 nM.

In the case of `CC[C@H](N)C(=O)N1CCn2c(nc(-c3ccc(F)cc3)c2Nc2ccc(C)cc2)C1` [Compound 85], the EC50 (W2 strain; Erythrocyte) is reported as 31 nM and the EC50 (3D7 P. falciparum strain; [1]) is reported as 20 nM.

For `Cc1ccc(Nc2c(-c3ccc(F)cc3)nc3n2CCN(C(=O)C2CCCNC2)C3)cc1` (centres unmarked) [Compound 86], the EC50 (W2 strain) was 755 nM and the EC50 (3D7 P. falciparum strain) was 710 nM.

Molecule `Cc1ccc(Nc2c(-c3ccc(F)cc3)nc3n2CCN(C(=O)C2CCCNC2)C3)cc1` (centres unmarked) [Compound 87] has an EC50 (W2 strain) of 12 nM and an EC50 (3D7 P. falciparum strain) of 20 nM.

`CCN(CC)CCN1CCn2c(nc(-c3ccc(F)cc3)c2Nc2ccc(C)cc2)C1` [Compound 88] gave an EC50 (W2 strain; Erythrocyte) of 81 nM and an EC50 (3D7 P. falciparum strain; [1]) of 150 nM.

`Cc1ccc(Nc2c(-c3ccc(F)cc3)nc3n2CCN(C(=O)[C@H]2CCN2)C3)cc1` [Compound 89] gave an EC50 (W2 strain; Erythrocyte) of 73 nM and an EC50 (3D7 P. falciparum strain; [1]) of 50 nM.

Work on `Cc1ccc(Nc2c(-c3ccc(F)cc3)nc3n2CCN(C(=O)[C@@H]2CCCN2)C3)cc1` [Compound 90] yielded an EC50 (W2 strain; Erythrocyte) of 600 nM and an EC50 (3D7 P. falciparum strain; [1]) of 650 nM.

For `Cc1ccc(Nc2c(-c3ccc(F)cc3)nc3n2CCN(C(=O)C2CCCN2)C3)cc1` (centres unmarked) [Compound 91], the EC50 (W2 strain; Erythrocyte) was 154 nM and the EC50 (3D7 P. falciparum strain; [1]) was 120 nM.

`Cc1ccc(Nc2c(-c3ccc(F)cc3)nc3n2CCN(C(=O)C2CCCNC2)C3)cc1` (centres unmarked) [Compound 92] showed an EC50 (W2 strain) of 1480 nM and an EC50 (3D7 P. falciparum strain) of 1300 nM.

`Cc1ccc(Nc2c(-c3ccc(F)cc3)nc3n2CCN(C(=O)C2CCCNC2)C3)cc1` (centres unmarked) [Compound 93] showed an EC50 (W2 strain) of 1510 nM and an EC50 (3D7 P. falciparum strain) of 1670 nM.

Work on `CC(C)(N)C(=O)N1CCn2c(nc(-c3ccc(F)cc3)c2Nc2ccc(Cl)c(F)c2)C1` [Compound 94] yielded an EC50 (W2 strain; Erythrocyte) of 52 nM and an EC50 (3D7 P. falciparum strain; [1]) of 40 nM.

For `Cc1ccc(Nc2c(-c3ccc(F)cc3)nc3n2CCN(C(=O)C2CCNC2)C3)cc1` (centres unmarked) [Compound 95], the EC50 (W2 strain) was 707 nM and the EC50 (3D7 P. falciparum strain) was 1540 nM.

Molecule `Cc1ccc(Nc2c(-c3ccc(F)cc3)nc3n2CCN(C(=O)C2CCNC2)C3)cc1` (centres unmarked) [Compound 96] has an EC50 (W2 strain) of 321 nM and an EC50 (3D7 P. falciparum strain) of 580 nM.

`Cc1ccc(Nc2c(-c3ccc(F)cc3)nc3n2CCN(C(=O)[C@H](N)c2ccccc2)C3)cc1` [Compound 97] showed an EC50 (W2 strain; Erythrocyte) of 21 nM and an EC50 (3D7 P. falciparum strain; [1]) of 40 nM.

For `Cc1ccc(Nc2c(-c3ccc(F)cc3)nc3n2CCN(C(=O)[C@@H](N)c2ccccc2)C3)cc1` [Compound 98], the EC50 (W2 strain; Erythrocyte) was 8 nM and the EC50 (3D7 P. falciparum strain; [1]) was 10 nM.

Molecule `Cc1ccc(Nc2c(-c3ccc(F)cc3)nc3n2CCN(C(=O)C2(O)CC2)C3)cc1` [Compound 99] has an EC50 (W2 strain; Erythrocyte) of 658 nM and an EC50 (3D7 P. falciparum strain; [1]) of 810 nM.

With `Cc1ccc(Nc2c(-c3ccc(F)cc3)nc3n2CCN(C(=O)CC(C)(C)O)C3)cc1` [Compound 100] the EC50 (W2 strain; Erythrocyte) was 143 nM and the EC50 (3D7 P. falciparum strain; [1]) was 150 nM.

For `CC(=O)NCCCC[C@H](N)C(=O)N1CCn2c(nc(-c3ccc(F)cc3)c2Nc2ccc(C)cc2)C1` [Compound 101], the EC50 (W2 strain; Erythrocyte) was 4370 nM and the EC50 (3D7 P. falciparum strain; [1]) was 5090 nM.

`Cc1ccc(Nc2c(-c3ccc(F)cc3)nc3n2CCN(C(=O)[C@H](N)CCCCNC(=O)C(F)(F)F)C3)cc1` [Compound 102] was tested, and the EC50 (W2 strain; Erythrocyte) was 426 nM and the EC50 (3D7 P. falciparum strain; [1]) was 650 nM.

Molecule `Cc1ccc(Nc2c(-c3ccc(F)cc3)nc3n2CCN(C(=O)C(O)C(C)C)C3)cc1` (centres unmarked) [Compound 104] has an EC50 (W2 strain; Erythrocyte) of 7 nM and an EC50 (3D7 P. falciparum strain; [1]) of 10 nM.

`Cc1ccc(Nc2c(-c3ccc(F)cc3)nc3n2CCN(C(=O)C(O)c2ccc(F)cc2)C3)cc1` (centres unmarked) [Compound 107] gave an EC50 (W2 strain; Erythrocyte) of 10 nM and an EC50 (3D7 P. falciparum strain; [1]) of 10 nM.

In the case of `Cc1ccc(Nc2c(-c3ccc(F)cc3)nc3n2CCN(C(=O)[C@@H](O)C(C)(C)C)C3)cc1` [Compound 110], the EC50 (W2 strain; Erythrocyte) is reported as 15 nM and the EC50 (3D7 P. falciparum strain; [1]) is reported as 20 nM.

For `Cc1ccc(Nc2c(-c3ccc(F)cc3)nc3n2CCN(C(=O)C2(O)CCCC2)C3)cc1` [Compound 116], the EC50 (W2 strain; Erythrocyte) was 1510 nM and the EC50 (3D7 P. falciparum strain; [1]) was 1640 nM.

Work on `Cc1ccc(Nc2c(-c3ccc(F)cc3)nc3n2CCN(C(=O)C2(O)CCCCC2)C3)cc1` [Compound 117] yielded an EC50 (W2 strain; Erythrocyte) of 1190 nM and an EC50 (3D7 P. falciparum strain; [1]) of 1260 nM.

For `Cc1ccc(Nc2c(-c3ccc(F)cc3)nc3n2CCN(C(=O)[C@@H](O)CCc2ccccc2)C3)cc1` [Compound 118], the EC50 (W2 strain; Erythrocyte) was 135 nM and the EC50 (3D7 P. falciparum strain; [1]) was 150 nM.

For `Cc1ccc(Nc2c(-c3ccc(F)cc3)nc3n2CCN(C(=O)CC(C)(O)C(F)(F)F)C3)cc1` (centres unmarked) [Compound 120], the EC50 (W2 strain; Erythrocyte) was 123 nM and the EC50 (3D7 P. falciparum strain; [1]) was 110 nM.

With `Cc1ccc(Nc2c(-c3ccc(F)cc3)nc3n2CCN(C(=O)[C@H](O)C2CCCCC2)C3)cc1` [Compound 121] the EC50 (W2 strain; Erythrocyte) was 33 nM and the EC50 (3D7 P. falciparum strain; [1]) was 20 nM.

`COc1ccc(C(O)C(=O)N2CCn3c(nc(-c4ccc(F)cc4)c3Nc3ccc(C)cc3)C2)cc1` (centres unmarked) [Compound 122] showed an EC50 (W2 strain; Erythrocyte) of 154 nM and an EC50 (3D7 P. falciparum strain; [1]) of 180 nM.

`Cc1ccc(Nc2c(-c3ccc(F)cc3)nc3n2CCN(C(=O)C(O)c2cccc(C(F)(F)F)c2)C3)cc1` (centres unmarked) [Compound 124] gave an EC50 (W2 strain; Erythrocyte) of 28 nM and an EC50 (3D7 P. falciparum strain; [1]) of 40 nM.

In the case of `COC(C(=O)N1CCn2c(nc(-c3ccc(F)cc3)c2Nc2ccc(C)cc2)C1)c1ccccc1` (centres unmarked) [Compound 125], the EC50 (W2 strain; Erythrocyte) is reported as 44 nM and the EC50 (3D7 P. falciparum strain; [1]) is reported as 50 nM.

`Cc1ccc(Nc2c(-c3ccc(F)cc3)nc3n2CCN(C(=O)C(O)c2ccc(Br)cc2)C3)cc1` (centres unmarked) [Compound 126] showed an EC50 (W2 strain; Erythrocyte) of 80 nM and an EC50 (3D7 P. falciparum strain; [1]) of 100 nM.

`Cc1ccc(Nc2c(-c3ccc(F)cc3)nc3n2CCN(C(=O)C(O)c2ccc(C(F)(F)F)cc2)C3)cc1` (centres unmarked) [Compound 127] was tested, and the EC50 (W2 strain; Erythrocyte) was 51 nM and the EC50 (3D7 P. falciparum strain; [1]) was 60 nM.

With `COC(C(=O)N1CCn2c(nc(-c3ccc(F)cc3)c2Nc2ccc(C)cc2)C1)(c1ccccc1)C(F)(F)F` (centres unmarked) [Compound 128] the EC50 (W2 strain; Erythrocyte) was 743 nM and the EC50 (3D7 P. falciparum strain; [1]) was 1180 nM.

For `Cc1ccc(Nc2c(-c3ccc(F)cc3)nc3n2CCN(C(=O)C(O)c2cccc(O)c2)C3)cc1` (centres unmarked) [Compound 129], the EC50 (W2 strain; Erythrocyte) was 6 nM and the EC50 (3D7 P. falciparum strain; [1]) was 10 nM.

`Cc1ccc(Nc2c(-c3ccc(F)cc3)nc3n2CCN(C(=O)C(O)c2ccccc2Cl)C3)cc1` (centres unmarked) [Compound 131] was tested, and the EC50 (W2 strain; Erythrocyte) was 30 nM and the EC50 (3D7 P. falciparum strain; [1]) was 40 nM.

`Cc1ccc(Nc2c(-c3ccc(F)cc3)nc3n2CCN(C(=O)C(O)c2ccc(Br)cc2F)C3)cc1` (centres unmarked) [Compound 132] showed an EC50 (W2 strain; Erythrocyte) of 82 nM and an EC50 (3D7 P. falciparum strain; [1]) of 100 nM.

Work on `Cc1ccc(Nc2c(-c3ccc(F)cc3)nc3n2CCN(C(=O)C(O)c2ccc(Cl)cc2)C3)cc1` (centres unmarked) [Compound 133] yielded an EC50 (W2 strain; Erythrocyte) of 39 nM and an EC50 (3D7 P. falciparum strain; [1]) of 50 nM.

In the case of `Cc1ccc(Nc2c(-c3ccc(F)cc3)nc3n2CCN(C(=O)[C@@H](O)CC(C)C)C3)cc1` [Compound 134], the EC50 (W2 strain; Erythrocyte) is reported as 7 nM and the EC50 (3D7 P. falciparum strain; [1]) is reported as 10 nM.
